From patent US20260053811A1, “METHODS OF TREATING HYPERTENSION IN OBESE SUBJECTS” (Mineralys Therapeutics, Inc., priority 2022, published 2026)

Test system: hypertensive subjects
Assay: Adverse events (TEAEs, SAEs, AESI, study drug discontinuation, dose modification);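 also: counts of spontaneously reported adverse events in the Safety Analysis Set, subjects grouped by treatment actually received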
Assay type: in vivo, human
From the text: In analyses performed on the Safety Analysis Set, subjects will be analyzed according to their actual treatment received.

SMILES: CC(=O)N[C@H]1CC[C@H](NC(=O)CN2CCN(c3nncc(-c4ccc(C)cc4)n3)CC2)CC1 [Compound A HBr]
- TEAE leading to permanent discontinuation from study drug: Orthostatic hypotension (Part 1, 100 mg QD (N = 30)): 0 n (%)
- TEAE leading to permanent discontinuation from study drug: Vascular disorders (Part 1, 100 mg QD (N = 30)): 1 (3.3) n (%)
- On-treatment TEAE: Blood and lymphatic system disorders (Part 1, Active (N = 133)): 2 (1.5) n (%)
- On-treatment TEAE: Blood and lymphatic system disorders, Mild (Part 1, Active (N = 133)): 2 (1.5) n (%)
- On-treatment TEAE: Blood creatinine increased (Part 1, Active (N = 133)): 3 (2.3) n (%)
- On-treatment TEAE: Blood creatinine increased, Mild (Part 1, Active (N = 133)): 3 (2.3) n (%)
- On-treatment TEAE: Cardiac disorders (Part 1, Active (N = 133)): 4 (3.0) n (%)
- On-treatment TEAE: Cortisol decreased (Part 1, Active (N = 133)): 3 (2.3) n (%)
- On-treatment TEAE: Cortisol decreased, Mild (Part 1, Active (N = 133)): 3 (2.3) n (%)
- On-treatment TEAE: Dizziness (Part 1, Active (N = 133)): 3 (2.3) n (%)
- On-treatment TEAE: Gastrointestinal disorders (Part 1, Active (N = 133)): 6 (4.5) n (%)
- On-treatment TEAE: Gastrointestinal disorders, Mild (Part 1, Active (N = 133)): 5 (3.8) n (%)
- On-treatment TEAE: General disorders and administration site conditions (Part 1, Active (N = 133)): 5 (3.8) n (%)
- On-treatment TEAE: General disorders and administration site conditions, Mild (Part 1, Active (N = 133)): 2 (1.5) n (%)
- On-treatment TEAE: Glomerular filtration rate decreased (Part 1, Active (N = 133)): 9 (6.8) n (%)
- On-treatment TEAE: Glomerular filtration rate decreased, Mild (Part 1, Active (N = 133)): 8 (6.0) n (%)
- On-treatment TEAE: Headache (Part 1, Active (N = 133)): 3 (2.3) n (%)
- On-treatment TEAE: Headache, Mild (Part 1, Active (N = 133)): 3 (2.3) n (%)
- On-treatment TEAE: Hyperkalaemia (Part 1, Active (N = 133)): 31 (23.3) n (%)
- On-treatment TEAE: Hyperkalaemia, Mild (Part 1, Active (N = 133)): 26 (19.5) n (%)
- On-treatment TEAE: Hyperkalaemia, Moderate (Part 1, Active (N = 133)): 4 (3.0) n (%)
- On-treatment TEAE: Hyperkalaemia, Severe (Part 1, Active (N = 133)): 1 (0.8) n (%)
- On-treatment TEAE: Hypertension (Part 1, Active (N = 133)): 5 (3.8) n (%)
- On-treatment TEAE: Hypertension, Moderate (Part 1, Active (N = 133)): 3 (2.3) n (%)
- On-treatment TEAE: Infections and infestations (Part 1, Active (N = 133)): 11 (8.3) n (%)
- On-treatment TEAE: Infections and infestations, Mild (Part 1, Active (N = 133)): 5 (3.8) n (%)
- On-treatment TEAE: Infections and infestations, Moderate (Part 1, Active (N = 133)): 6 (4.5) n (%)
- On-treatment TEAE: Investigations (Part 1, Active (N = 133)): 21 (15.8) n (%)
- On-treatment TEAE: Investigations, Mild (Part 1, Active (N = 133)): 17 (12.8) n (%)
- On-treatment TEAE: Investigations, Moderate (Part 1, Active (N = 133)): 4 (3.0) n (%)
- On-treatment TEAE: Metabolism and nutrition disorders (Part 1, Active (N = 133)): 34 (25.6) n (%)
- On-treatment TEAE: Metabolism and nutrition disorders, Mild (Part 1, Active (N = 133)): 29 (21.8) n (%)
- On-treatment TEAE: Metabolism and nutrition disorders, Moderate (Part 1, Active (N = 133)): 4 (3.0) n (%)
- On-treatment TEAE: Nervous system disorders (Part 1, Active (N = 133)): 8 (6.0) n (%)
- On-treatment TEAE: Nervous system disorders, Mild (Part 1, Active (N = 133)): 6 (4.5) n (%)
- On-treatment TEAE: Orthostatic hypotension (Part 1, Active (N = 133)): 3 (2.3) n (%)
- On-treatment TEAE: Orthostatic hypotension, Mild (Part 1, Active (N = 133)): 3 (2.3) n (%)
- On-treatment TEAE: Psychiatric disorders (Part 1, Active (N = 133)): 3 (2.3) n (%)
- On-treatment TEAE: Psychiatric disorders, Moderate (Part 1, Active (N = 133)): 3 (2.3) n (%)
- On-treatment TEAE: Urinary tract infection (Part 1, Active (N = 133)): 7 (5.3) n (%)
- On-treatment TEAE: Urinary tract infection, Mild (Part 1, Active (N = 133)): 4 (3.0) n (%)
- On-treatment TEAE: Vascular disorders (Part 1, Active (N = 133)): 9 (6.8) n (%)
- On-treatment TEAE: Vascular disorders, Mild (Part 1, Active (N = 133)): 5 (3.8) n (%)
- On-treatment TEAE: Vascular disorders, Moderate (Part 1, Active (N = 133)): 4 (3.0) n (%)
- On-treatment TEAE: any, Mild (Part 1, Active (N = 133)): 47 (35.3) n (%)
- On-treatment TEAE: any, Moderate (Part 1, Active (N = 133)): 25 (18.8) n (%)
- On-treatment TEAE: any, Severe (Part 1, Active (N = 133)): 1 (0.8) n (%)
- Subjects with any On-treatment TEAEs leading to withdrawal from study drug (Part 1, Active (N = 133)): 10 (7.5) n (%)
- TEAE leading to permanent discontinuation from study drug: Activated partial thromboplastin time prolonged (Part 1, Active (N = 133)): 1 (0.8) n (%)
- TEAE leading to permanent discontinuation from study drug: Cardiac disorders (Part 1, Active (N = 133)): 1 (0.8) n (%)
- TEAE leading to permanent discontinuation from study drug: Coronary artery disease (Part 1, Active (N = 133)): 1 (0.8) n (%)
- TEAE leading to permanent discontinuation from study drug: Dizziness (Part 1, Active (N = 133)): 1 (0.8) n (%)
- TEAE leading to permanent discontinuation from study drug: Hyperkalaemia (Part 1, Active (N = 133)): 5 (3.8) n (%)
- TEAE leading to permanent discontinuation from study drug: Hypertension (Part 1, Active (N = 133)): 1 (0.8) n (%)
- TEAE leading to permanent discontinuation from study drug: Hypotension (Part 1, Active (N = 133)): 1 (0.8) n (%)
- TEAE leading to permanent discontinuation from study drug: Investigations (Part 1, Active (N = 133)): 1 (0.8) n (%)
- TEAE leading to permanent discontinuation from study drug: Metabolism and nutrition disorders (Part 1, Active (N = 133)): 5 (3.8) n (%)
- TEAE leading to permanent discontinuation from study drug: Nervous system disorders (Part 1, Active (N = 133)): 1 (0.8) n (%)
- TEAE leading to permanent discontinuation from study drug: Orthostatic hypotension (Part 1, Active (N = 133)): 1 (0.8) n (%)
- TEAE leading to permanent discontinuation from study drug: Vascular disorders (Part 1, Active (N = 133)): 3 (2.3) n (%)
- Dose titration: Hyperkalemia, subjects n (%) (Part 1 All active (N 159)): 6 (3.8%)
- Dose titration: Hyponatremia, subjects n (%) (Part 1 All active (N 159)): 0
- Dose titration: Other possibly related, subjects n (%) (Part 1 All active (N 159)): 0
- Dose titration: Other unrelated, subjects n (%) (Part 1 All active (N 159)): 1 (0.6%)
- Study drug discontinuation: Hyperkalemia, subjects n (%) (Part 1 All active (N 159)): 6 (3.8%)
- Study drug discontinuation: Hyponatremia, subjects n (%) (Part 1 All active (N 159)): 0
- Study drug discontinuation: Hypotension, subjects n (%) (Part 1 All active (N 159)): 2 (1.2%)
- Study drug discontinuation: Other possibly related, subjects n (%) (Part 1 All active (N 159)): 1 (0.6%)
- Study drug discontinuation: Other unrelated, subjects n (%) (Part 1 All active (N 159)): 11 (6.9%)
- Deaths (Part 1 or Part 2): No deaths were reported
- Subjects with TEAE resulting in dose modification (Part 2): 7
- Dose titration: Hyperkalemia, subjects n (%) (Part 2 100mg QD (N 31)): 1 (3.2%)
- Dose titration: Hyponatremia, subjects n (%) (Part 2 100mg QD (N 31)): 1 (3.2%)
- Dose titration: Other possibly related, subjects n (%) (Part 2 100mg QD (N 31)): 0
- Dose titration: Other unrelated, subjects n (%) (Part 2 100mg QD (N 31)): 0
- Study drug discontinuation: Hyperkalemia, subjects n (%) (Part 2 100mg QD (N 31)): 0
- Study drug discontinuation: Hyponatremia, subjects n (%) (Part 2 100mg QD (N 31)): 1 (3.4%)
- Study drug discontinuation: Hypotension, subjects n (%) (Part 2 100mg QD (N 31)): 1 (2.8%)
- Study drug discontinuation: Other possibly related, subjects n (%) (Part 2 100mg QD (N 31)): 0
- Study drug discontinuation: Other unrelated, subjects n (%) (Part 2 100mg QD (N 31)): 1 (2.8%)
- Subjects with any On-treatment TEAEs leading to withdrawal from study drug (Part 2, 100 mg QD (N = 31)): 2 (6.5) n (%)
- TEAE leading to permanent withdrawal from study drug: Glomerular filtration rate decreased (Part 2, 100 mg QD (N = 31)): 1 (3.2) n (%)
- TEAE leading to permanent withdrawal from study drug: Hyponatraemia (Part 2, 100 mg QD (N = 31)): 1 (3.2) n (%)
- TEAE leading to permanent withdrawal from study drug: Investigations (Part 2, 100 mg QD (N = 31)): 1 (3.2) n (%)
- TEAE leading to permanent withdrawal from study drug: Metabolism and nutrition disorders (Part 2, 100 mg QD (N = 31)): 1 (3.2) n (%)
- TEAE leading to permanent withdrawal from study drug: Muscle spasms (Part 2, 100 mg QD (N = 31)): 1 (3.2) n (%)
- TEAE leading to permanent withdrawal from study drug: Musculoskeletal and connective tissue disorders (Part 2, 100 mg QD (N = 31)): 1 (3.2) n (%)
- Subjects with muscle spasms (PT) (Part 2, 100 mg QD cohort): 3 (9.7%)
- Subjects with ≥1 moderate on-treatment TEAE (Part 2, 100 mg QD cohort): 12 (38.7%)
- Dose titration: Hyperkalemia, subjects n (%) (Total active (N 190)): 7 (4.1%)
- Dose titration: Hyponatremia, subjects n (%) (Total active (N 190)): 1 (0.5%)
- Dose titration: Other possibly related, subjects n (%) (Total active (N 190)): 0
- Dose titration: Other unrelated, subjects n (%) (Total active (N 190)): 1 (0.5%)
- Study drug discontinuation: Hyperkalemia, subjects n (%) (Total active (N 190)): 6 (3.2%)
- Study drug discontinuation: Hyponatremia, subjects n (%) (Total active (N 190)): 1 (0.5%)
- Study drug discontinuation: Hypotension, subjects n (%) (Total active (N 190)): 3 (1.6%)
- Study drug discontinuation: Other possibly related, subjects n (%) (Total active (N 190)): 1 (0.5%)
- Study drug discontinuation: Other unrelated, subjects n (%) (Total active (N 190)): 12 (6.3%)
- Subjects who developed orthostatic hypotension (fall of 20 mmHg SBP or 10 mmHg DBP sitting to standing): three
- Episodes of severe hyperkalemia (pooled (Part 1 and Part 2) 100 mg QD safety set (n=60)): no episodes of severe hyperkalemia
- Subjects with hypotension related to treatment (two in 100 mg QD cohorts (Part 1, Part 2), one in 12.5 mg BID): three
- Serious adverse events (SAEs) related to the study medication (whole trial (Example 1 analysis)): No serious adverse events (SAEs) related to the study medication were observed
